Where only a bound is given, the exact number is not on record here.

Holding throughout (type): biochemical
The target of one experiment is T1, PDK1 (Homo sapiens, UniProt O15530).
T1 construct: human PDK1 kinase domain residues M51-T359; made in house
T1 sequence (O15530 51-359): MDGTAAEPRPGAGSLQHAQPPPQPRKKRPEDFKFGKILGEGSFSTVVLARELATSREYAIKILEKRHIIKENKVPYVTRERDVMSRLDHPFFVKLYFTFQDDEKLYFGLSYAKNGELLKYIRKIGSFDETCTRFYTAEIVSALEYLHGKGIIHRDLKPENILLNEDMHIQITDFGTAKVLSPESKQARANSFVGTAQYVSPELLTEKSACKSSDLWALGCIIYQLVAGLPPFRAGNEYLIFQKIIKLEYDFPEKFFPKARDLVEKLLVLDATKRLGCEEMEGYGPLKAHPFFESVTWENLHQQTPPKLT
Nature of the experiment: PDK1 Kinase Assay (Luciferase-Coupled Chemiluminescent Kinase assay, LCCA). The conditions noted are these: human PDK1 kinase domain residues M51-T359; 0.5 μM ATP; read-out: PDK-1 IC50. How it is done: Kinase activity and compound inhibition are investigated using one or more of the three assay formats described below. The ATP concentrations for each assay are selected to be close to the Michaelis-Menten constant (KM) for each individual kinase. Dose-response experiments are performed at 10 different inhibitor concentrations in a 384-well plate format. The data are fitted to four-parameter equation (2) below; where Y is the observed signal, X is the inhibitor concentration, Min is the background signal in the absence of enzyme (0% enzyme activity), Max is the signal in the absence of inhibitor (100% enzyme activity), IC50 is the inhibitor concentration at 50% enzyme inhibition and H represents the empirical Hill's slope to measure the cooperativity. Typically H is close to unity. Y=Min+(Max−Min)/(1+(X/IC50)^H) Equation (2) p70S6 Kinase Assay
Biochemical activity of PDK1 kinase was assessed using a Luciferase-Coupled Chemiluminescent Kinase assay (LCCA) format. Kinase activity was measured as the percent ATP remaining following the kinase reaction. Remaining ATP was detected by luciferase-luciferin-coupled chemiluminescence. Specifically, the reaction was initiated by mixing test compounds, 0.5 μM ATP, 0.6 μM PDKtide peptide and 6 nM PDK1 (baculovirus expressed human PDK1 kinase domain residues M51-T359) in a 20 uL assay buffer (20 mM Hepes pH 7.5, 1 mM CaCl2, 0.03% CHAPS, 2 mM DTT). The mixture is incubated at ambient temperature for 3 hours after which 20 μL luciferase-luciferin mix is added and the chemiluminescent signal read using a Wallac Victor2 reader. The luciferase-luciferin mix consists of 50 mM HEPES, pH 7.8, 8.5 μg/mL oxalic acid (pH 7.8), 5 (or 50) mM DTT, 0.4% Triton X-100, 0.25 mg/mL coenzyme A, 63 uM AMP, 28 μg/mL luciferin and 40,000 units/mL luciferase.

The next experiment addresses T2, p70S6K (Homo sapiens, UniProt P23443, T412E).
T2 construct: human p70S6 kinase domain residues 1-421, containing a T412E mutation; made in house
As to the kind of experiment: p70S6 Kinase Assay (Luciferase-Coupled Chemiluminescent Kinase assay, LCCA). The conditions noted are these: human p70S6 kinase domain residues 1-421, T412E; 5 μM ATP; read-out: p70S6K IC50. Put shortly:
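Luciferase-coupled chemiluminescence measured percent ATP remaining after the 2 h kinase reaction at ambient temperature, with ATP near the kinase's KM. Ten inhibitor concentrations were tested. IC50 was obtained from a Hill-equation fit.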

A further experiment deals with T3, Akt1 (Homo sapiens, UniProt P31749).
T3 construct: made in house
As to the kind of experiment: Akt1 Kinase Assay (Luciferase-Coupled Chemiluminescent Kinase assay, LCCA). The conditions noted are these: human Akt1 kinase domain residues R144-A480, activated with PDK1; 1 μM ATP; read-out: Akt-1 IC50. Put shortly: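 Baculovirus-expressed PDK1-activated Akt1 kinase domain (R144-A480), 1.3 nM, with 5 μM crosstide and 1 μM ATP in Tris pH 7.5 with MgCl2/MnCl2, 3 h at ambient temperature. Remaining ATP read by luciferase-luciferin chemiluminescence; 10-point IC50 from four-parameter fit.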

T3 sequence (P31749 144-480): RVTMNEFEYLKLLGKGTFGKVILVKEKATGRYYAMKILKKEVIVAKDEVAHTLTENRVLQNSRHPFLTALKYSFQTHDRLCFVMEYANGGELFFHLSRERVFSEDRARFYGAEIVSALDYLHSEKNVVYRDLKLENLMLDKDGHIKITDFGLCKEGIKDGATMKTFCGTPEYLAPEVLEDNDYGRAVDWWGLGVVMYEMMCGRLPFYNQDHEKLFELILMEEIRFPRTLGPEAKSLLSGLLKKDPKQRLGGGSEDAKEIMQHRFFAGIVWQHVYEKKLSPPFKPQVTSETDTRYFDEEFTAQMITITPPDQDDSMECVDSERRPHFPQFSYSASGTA
T2 sequence (P23443 1-421 T412E): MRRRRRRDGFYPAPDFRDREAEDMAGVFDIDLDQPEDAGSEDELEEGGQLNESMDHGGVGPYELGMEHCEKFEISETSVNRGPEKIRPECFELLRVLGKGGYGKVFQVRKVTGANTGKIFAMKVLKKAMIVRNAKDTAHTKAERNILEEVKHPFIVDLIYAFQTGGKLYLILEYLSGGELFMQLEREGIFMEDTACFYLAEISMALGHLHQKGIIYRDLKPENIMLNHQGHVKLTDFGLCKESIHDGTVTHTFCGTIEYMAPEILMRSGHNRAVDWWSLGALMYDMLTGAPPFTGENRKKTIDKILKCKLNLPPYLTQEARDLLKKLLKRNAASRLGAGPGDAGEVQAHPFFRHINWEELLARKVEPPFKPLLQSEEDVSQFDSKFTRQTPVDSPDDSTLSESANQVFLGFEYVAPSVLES

As usually defined, the IC50 is the concentration at which inhibition is half-maximal. For `CCc1nnc(NC(=O)CSc2nc(N)nc(SC)c2C#N)s1` [Example 24, 2-{[2-amino-5-cyano-6-(methylthio)pyrimidin-4-yl]thio}-N-(5-ethyl-1,3,4-thiadiazol-2-yl)acetamide], the values for the IC50 at PDK1, on p70S6K and at Akt1 were above 2000 nM, below 50 nM and above 2000 nM, respectively.

In the case of `CSc1nc(N)nc(N(C)[C@@H](C)C(=O)Nc2cccc(OC(F)(F)F)c2)c1C#N` [Example 132, N~2~-[2-amino-5-cyano-6-(methylthio)pyrimidin-4-yl]-N~2~-methyl-N-{3-[(trifluoromethyl)oxy]phenyl}-L-alaninamide], the values for the IC50 at PDK1, on p70S6K and at Akt1 were above 2000 nM, below 50 nM and above 2000 nM, respectively.

As for `CSc1nc(N)nc(SCC(=O)n2nc(C)cc2C)c1C#N` [Example 26, 2-amino-4-{[2-(3,5-dimethyl-1H-pyrazol-1-yl)-2-oxoethyl]thio}-6-(methylthio)pyrimidine-5-carbonitrile], the IC50 on PDK1 is above 2000 nM; at p70S6K, below 50 nM; on Akt1, above 2000 nM.

On to `CSc1nc(N)nc(SCC(=O)Nc2nc(C)cs2)c1C#N` [Example 25, 2-{[2-amino-5-cyano-6-(methylthio)pyrimidin-4-yl]thio}-N-(4-methyl-1,3-thiazol-2-yl)acetamide], for which the half-inhibitory concentration (IC50) on PDK1 is above 2000 nM; at p70S6K, below 50 nM; at Akt1, above 2000 nM.

Take `CSc1cc(OCC(=O)Nc2cccc(C(F)(F)F)c2)nc(N)n1`: the half-inhibitory concentration (IC50) was above 2000 nM at PDK1, below 50 nM on p70S6K and above 2000 nM on Akt1.

With `CSc1nc(N)nc(SCC(=O)Nc2ccccn2)c1C#N` [Example 29, 2-{[2-amino-5-cyano-6-(methylthio)pyrimidin-4-yl]thio}-N-pyridin-2-ylacetamide], the results for the IC50 on PDK1, on p70S6K and on Akt1 were above 2000 nM, below 50 nM and above 2000 nM, respectively.

`CSc1nc(N)nc(SC2CCN(c3cccc(C(F)(F)F)c3)C2=O)c1C#N` (stereo not drawn) [Example 35, 2-amino-4-(methylthio)-6-({2-oxo-1-[3-(trifluoromethyl)phenyl]pyrrolidin-3-yl}thio)pyrimidine-5-carbonitrile]: the IC50 was above 2000 nM at PDK1, below 50 nM on p70S6K and above 2000 nM at Akt1.

For the origin of these results see patent publication US7816353B2 (Exelixis, Inc., priority 2003, dated 2010).
